Data taken from US20250282753A1, “COMPOUNDS USEFUL FOR REDUCING URIC ACID” (ATOM BIOSCIENCE AMERICA CORPORATION, priority 2022, published 2025).

Legend:
[1] = system: potassium oxonate-induced hyperuricemic rats; assay: Serum uric acid in potassium oxonate-induced hyperuricemic rats, single gavage (Example 34); format: in vivo, SD rats; conditions: for Uric acid 0 h / Uric acid 1 h / Uric acid 3 h / Uric acid 5 h: serum, mean ± SD; for Uric acid 0 h: before potassium oxonate injection; for Uric acid 1 h: 1 h after potassium oxonate injection; for Uric acid 3 h: 3 h after potassium oxonate injection; for Uric acid 5 h: 5 h after potassium oxonate injection
Method: 36 male SD rats weighed approximately 200-230 g after one week of adaptation. […] The drugs in each group were prepared into a corresponding concentration suspension, and the administration volume was 0.5 mL/100 g.
After the rats in each group were purchased and adapted to feeding, they were fasted for 12 h, and intraperitoneally injected with potassium oxonate at a dose of 300 mg/kg to establish the model. After 0.5 h of model establishment, each test drug group was gavaged once. Blood was collected from the retro-orbital venous plexus before and 1, 3, and 5 h after potassium oxonate injection. The samples were centrifuged at 3500 rpm for 10 min. 30 μL of serum was collected to determine the uric acid level at each time point.
The measurement data of each test were expressed as (mean)+standard deviation). The comparison between groups used ANOVA-Dunnett T test to examine the significance. P<0.05 was used as the significance index, and P<0.01 was used as the extremely significant index.

[2] = system: potassium oxonate-induced hyperuricemic rats; assay: Serum uric acid in potassium oxonate-induced hyperuricemic rats, 3 days of gavage (Example 35); format: in vivo, SD rats
Method: Compound 13 was a light yellow powder, and compounds 38 and 41 are pseudo-white powders, which are triturated with 0.5% CMC-Na just prior to use to prepare a 0.4 mg/mL suspension for gavage.
36 male SD rats weighed approximately 220-240 g after one week of adaptation. […] The drugs in each group were prepared into a corresponding concentration suspension, and the administration volume was 0.5 mL/100 g.
After the rats in each group were purchased and adapted to feeding, they were fasted for 12 h, and, intraperitoneally, injected with⋅ potassium⋅ gxonate at a⋅dose of 300 mg/kg to establish the model. 0.5 h after modeling, each test drug group was gavaged once. The drug was administered continuously for 3 days. On day 3, blood samples was collected from the retro-orbital venous plexus before and 1, 3, and 5 h after potassium oxonate injection. The samples were centrifuged at 3500 rpm for 10 min, and 30 μL of serum was collected to determine the uric acid level at each time point.
The measurement data of each test were expressed as (mean)±standard deviation). The comparison between groups used ANOVA-Dunnett T test to examine the significance. P<0.05 was used as the significance index, and P<0.01 was used as the extremely significant index.

[3] = cited from earlier work; for Sudden cardiac death, number of cases / Sudden cardiac death, share of group: per treatment group
[4] = allopurinol used at the maximum dose; cited from earlier work
[5] = cited from earlier work
[6] = Febuxostat group vs allopurinol group

Cc1oc(=O)oc1COC(=O)c1ccnc(-c2ccc3c(c2)c(C#N)nn3C(C)C)c1 [Compound 22, (5-methyl-2-oxo-1,3-dioxol-4-yl)methyl 2-(3-cyano-1-isopropyl-1H-indazol-5-yl) isonicotinate]
serum uric acid level compared with the model group at the same time point ([1]; 1.45 mg/kg group, 1 h after modeling, P<0.05): significantly reduce | serum uric acid level compared with the model group at the same time point ([1]; 2.9 mg/kg group, 1 and 5 h after modeling, P<0.05): significantly reduce | Uric acid 0 h ([1]; 1.45 mg/kg gavage once): 64.0 ± 13.1 µmol/L | Uric acid 1 h ([1]; 1.45 mg/kg gavage once): 88.1 ± 17.8 µmol/L | Uric acid 3 h ([1]; 1.45 mg/kg gavage once): 86.5 ± 11.5 µmol/L | Uric acid 5 h ([1]; 1.45 mg/kg gavage once): 78.1 ± 11.1 µmol/L | Uric acid 0 h ([1]; 2.90 mg/kg gavage once): 66.4 ± 7.0 µmol/L | Uric acid 1 h ([1]; 2.90 mg/kg gavage once): 88.3 ± 11.9 µmol/L | Uric acid 3 h ([1]; 2.90 mg/kg gavage once): 77.1 ± 13.2 µmol/L | Uric acid 5 h ([1]; 2.90 mg/kg gavage once): 70.9 ± 6.3 µmol/L

Cc1nc(-c2ccc(OCC(C)C)c(C#N)c2)sc1C(=O)O [Febuxostat, reference compound]
serum uric acid level compared with the model group at the same time point ([1]; 1 mg/kg and 2 mg/kg, 1, 3, and 5 h after modeling, P<0.01): significantly reduce | Uric acid 1 h ([1]; 1 mg/kg gavage once): 78.0 ± 17.5 µmol/L | Uric acid 3 h ([1]; 1 mg/kg gavage once): 63.3 ± 13.8 µmol/L | Uric acid 5 h ([1]; 1 mg/kg gavage once): 59.0 ± 9.8 µmol/L | Uric acid 1 h ([1]; 2 mg/kg gavage once): 40.6 ± 10.6 µmol/L | Uric acid 3 h ([1]; 2 mg/kg gavage once): 50.1 ± 10.7 µmol/L | Uric acid 5 h ([1]; 2 mg/kg gavage once): 61.4 ± 7.1 µmol/L | serum uric acid level compared with the model group at the same time point ([2]; 2 mg/kg for 3 days, 1, 3, and 5 h after modeling, P<0.01): significantly reduce | Uric acid 0 h ([2]; serum, 2 mg/kg gavage for 3 days, day 3, 0 h, before potassium oxonate injection, mean ± SD, n=6): 39.2 ± 6.2 µmol/L | Uric acid 1 h ([2]; serum, 2 mg/kg gavage for 3 days, day 3, 1 h after potassium oxonate injection, mean ± SD): 34.4 ± 7.1 µmol/L | Uric acid 3 h ([2]; serum, 2 mg/kg gavage for 3 days, day 3, 3 h after potassium oxonate injection, mean ± SD): 31.2 ± 7.6 µmol/L | Uric acid 5 h ([2]; serum, 2 mg/kg gavage for 3 days, day 3, 5 h after potassium oxonate injection, mean ± SD): 24.7 ± 4.7 µmol/L | increase in all-cause mortality [3, 6]: 22% | increase in cardiovascular mortality [3, 6]: 34% | all-cause mortality, HR ([3]; Febuxostat vs allopurinol group, 95% CI 1.01-1.47): 1.22 | cardiovascular mortality, HR ([3]; Febuxostat vs allopurinol group, 95% CI 1.03-1.73): 1.34 | overall risk of adverse cardiovascular events, HR ([3]; Febuxostat vs allopurinol group, average of 32 months of treatment, 95% CI 0.87-1.23): 1.03 | Sudden cardiac death, number of cases [3]: 83 cases | Sudden cardiac death, share of group [3]: 2.7%

Oc1ncnc2[nH]ncc12 [allopurinol]
rate of subjects reaching the treatment endpoint [4]: less than 50% | Sudden cardiac death, number of cases [3]: 56 cases | Sudden cardiac death, share of group [3]: 1.8%

Pegloticase
patients experiencing severe immune allergic side effects ([5]; human, in vivo, iv): 20-40% | patients reaching the treatment endpoint of below 0.36 mmol/L ([5]; intravenous injection): 47%
